PubChem BioAssay AID1845210 (Molecular Pharmacology Branch, DTP, NCI, 2023)
Each block holds one compound with its values, some of them ahead of it.

Tested on: NCI-H226 complex tumor spheroids, viability
Test: Anticancer human tumor NCI-H226 cell line growth inhibition;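 note: spheroids exposed to compound for 7 days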;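 for viability, T/C: 100% = DMSO vehicle control viability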
Settings: for viability, T/C: stronger effect = lower value
In short: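 Complex spheroids of malignant cells with endothelial cells and mesenchymal stem cells; agents alone or combined, from near clinical Cmax (or 10 microM if unknown) down in half-log steps, 0.25% DMSO final.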

[1] = curve of first compound, second compound 0.003 µM
[2] = curve of first compound, second compound 0.00949 µM
[3] = curve of first compound, second compound 0.03 µM
[4] = curve of first compound, second compound 0.0949 µM
[5] = curve of first compound, second compound 0.3 µM
[6] = second compound 0.003 µM, first compound 0.0316 µM
[7] = second compound 0.003 µM, first compound 0.1 µM
[8] = second compound 0.003 µM, first compound 0.316 µM
[9] = second compound 0.003 µM, first compound 1 µM
[10] = second compound 0.003 µM, first compound 3.16 µM
[11] = second compound 0.003 µM, first compound 10 µM
[12] = second compound 0.00949 µM, first compound 0.0316 µM
[13] = second compound 0.00949 µM, first compound 0.1 µM
[14] = second compound 0.00949 µM, first compound 0.316 µM
[15] = second compound 0.00949 µM, first compound 1 µM
[16] = second compound 0.00949 µM, first compound 3.16 µM
[17] = second compound 0.00949 µM, first compound 10 µM
[18] = second compound 0.03 µM, first compound 0.0316 µM
[19] = second compound 0.03 µM, first compound 0.1 µM
[20] = second compound 0.03 µM, first compound 0.316 µM
[21] = second compound 0.03 µM, first compound 1 µM
[22] = second compound 0.03 µM, first compound 3.16 µM
[23] = second compound 0.03 µM, first compound 10 µM
[24] = second compound 0.0949 µM, first compound 0.0316 µM
[25] = second compound 0.0949 µM, first compound 0.1 µM
[26] = second compound 0.0949 µM, first compound 0.316 µM
[27] = second compound 0.0949 µM, first compound 1 µM
[28] = second compound 0.0949 µM, first compound 3.16 µM
[29] = second compound 0.0949 µM, first compound 10 µM
[30] = second compound 0.3 µM, first compound 0.0316 µM
[31] = second compound 0.3 µM, first compound 0.1 µM
[32] = second compound 0.3 µM, first compound 0.316 µM
[33] = second compound 0.3 µM, first compound 1 µM
[34] = second compound 0.3 µM, first compound 3.16 µM
[35] = second compound 0.3 µM, first compound 10 µM

SMILES: COc1ccc([C@@H](O)c2cc(-c3ncnc4cc(N5CCOCC5)ccc34)c(F)cc2Cl)nn1 + CC[C@@]1(O)C(=O)OCc2c1cc1n(c2=O)Cc2cc3c(CN(C)C)c(O)ccc3nc2-1
- IC50 [1]: 4.24 µM
- IC50 [2]: 2.92 µM
- IC50 [3]: 1.88 µM
- IC50 [4]: 2.48 µM
- IC50 [5]: 1.52 µM
- viability, T/C [6]: 98.2%
- viability, T/C [7]: 96.3%
- viability, T/C [8]: 88.3%
- viability, T/C [9]: 71.1%
- viability, T/C [10]: 56.7%
- viability, T/C [11]: 34.7%
- viability, T/C [12]: 87.8%
- viability, T/C [13]: 98.7%
- viability, T/C [14]: 90.6%
- viability, T/C [15]: 74.5%
- viability, T/C [16]: 48.9%
- viability, T/C [17]: 35.2%
- viability, T/C [18]: 79.6%
- viability, T/C [19]: 81.7%
- viability, T/C [20]: 75.6%
- viability, T/C [21]: 57.1%
- viability, T/C [22]: 44.1%
- viability, T/C [23]: 30.2%
- viability, T/C [24]: 90.4%
- viability, T/C [25]: 83.1%
- viability, T/C [26]: 74.8%
- viability, T/C [27]: 65.2%
- viability, T/C [28]: 44.8%
- viability, T/C [29]: 30.3%
- viability, T/C [30]: 68.1%
- viability, T/C [31]: 73.2%
- viability, T/C [32]: 65.9%
- viability, T/C [33]: 55.8%
- viability, T/C [34]: 39.8%
- viability, T/C [35]: 30.8%

SMILES: Cc1cc(C)c(CNC(=O)c2cc(-c3ccc(CN4CCOCC4)cc3)cc3c2cnn3C2CCCC2)c(=O)[nH]1 + COc1cc2c(cc1O)CCNC21CSC2c3c(OC(C)=O)c(C)c4c(c3C(COC1=O)N1C(O)C3Cc5cc(C)c(OC)c(O)c5C(C21)N3C)OCO4
- IC50 (curve of first compound, second compound 30 pM): > 10 µM
- IC50 (curve of first compound, second compound 94.9 pM): > 10 µM
- IC50 (curve of first compound, second compound 0.0003 µM): > 10 µM
- IC50 (curve of first compound, second compound 0.000949 µM): > 10 µM
- IC50 [1]: < 0.0316 µM
- viability, T/C (second compound 30 pM, first compound 0.0316 µM): 87.5%
- viability, T/C (second compound 30 pM, first compound 0.1 µM): 106%
- viability, T/C (second compound 30 pM, first compound 0.316 µM): 96.8%
- viability, T/C (second compound 30 pM, first compound 1 µM): 93.8%
- viability, T/C (second compound 30 pM, first compound 3.16 µM): 86.7%
- viability, T/C (second compound 30 pM, first compound 10 µM): 95.8%
- viability, T/C (second compound 94.9 pM, first compound 0.0316 µM): 98.3%
- viability, T/C (second compound 94.9 pM, first compound 0.1 µM): 100%
- viability, T/C (second compound 94.9 pM, first compound 0.316 µM): 101%
- viability, T/C (second compound 94.9 pM, first compound 1 µM): 96.6%
- viability, T/C (second compound 94.9 pM, first compound 3.16 µM): 83.1%
- viability, T/C (second compound 94.9 pM, first compound 10 µM): 91.8%
- viability, T/C (second compound 0.0003 µM, first compound 0.0316 µM): 105%
- viability, T/C (second compound 0.0003 µM, first compound 0.1 µM): 115%
- viability, T/C (second compound 0.0003 µM, first compound 0.316 µM): 109%
- viability, T/C (second compound 0.0003 µM, first compound 1 µM): 110%
- viability, T/C (second compound 0.0003 µM, first compound 3.16 µM): 110%
- viability, T/C (second compound 0.0003 µM, first compound 10 µM): 93.3%
- viability, T/C (second compound 0.000949 µM, first compound 0.0316 µM): 108%
- viability, T/C (second compound 0.000949 µM, first compound 0.1 µM): 104%
- viability, T/C (second compound 0.000949 µM, first compound 0.316 µM): 113%
- viability, T/C (second compound 0.000949 µM, first compound 1 µM): 103%
- viability, T/C (second compound 0.000949 µM, first compound 3.16 µM): 92.3%
- viability, T/C (second compound 0.000949 µM, first compound 10 µM): 97.8%
- viability, T/C [6]: 3.24%
- viability, T/C [7]: 1.05%
- viability, T/C [8]: 2.46%
- viability, T/C [9]: 0.49%
- viability, T/C [10]: 0.37%
- viability, T/C [11]: 0.44%

SMILES: O=C(c1cc(Cc2n[nH]c(=O)c3ccccc23)ccc1F)N1CCN(C(=O)C2CC2)CC1 + CC[C@@]1(O)C(=O)OCc2c1cc1n(c2=O)Cc2cc3c(CN(C)C)c(O)ccc3nc2-1
- IC50 [1]: > 30 µM
- IC50 [2]: > 30 µM
- IC50 [3]: > 30 µM
- IC50 [4]: > 30 µM
- IC50 [5]: > 30 µM
- viability, T/C (second compound 0.003 µM, first compound 0.0949 µM): 103%
- viability, T/C (second compound 0.003 µM, first compound 0.3 µM): 95.8%
- viability, T/C (second compound 0.003 µM, first compound 0.949 µM): 100%
- viability, T/C (second compound 0.003 µM, first compound 3 µM): 106%
- viability, T/C (second compound 0.003 µM, first compound 9.49 µM): 97.9%
- viability, T/C (second compound 0.003 µM, first compound 30 µM): 100%
- viability, T/C (second compound 0.00949 µM, first compound 0.0949 µM): 94.7%
- viability, T/C (second compound 0.00949 µM, first compound 0.3 µM): 91.2%
- viability, T/C (second compound 0.00949 µM, first compound 0.949 µM): 95.9%
- viability, T/C (second compound 0.00949 µM, first compound 3 µM): 91%
- viability, T/C (second compound 0.00949 µM, first compound 9.49 µM): 85.9%
- viability, T/C (second compound 0.00949 µM, first compound 30 µM): 81.1%
- viability, T/C (second compound 0.03 µM, first compound 0.0949 µM): 88.9%
- viability, T/C (second compound 0.03 µM, first compound 0.3 µM): 90.4%
- viability, T/C (second compound 0.03 µM, first compound 0.949 µM): 90.1%
- viability, T/C (second compound 0.03 µM, first compound 3 µM): 91.2%
- viability, T/C (second compound 0.03 µM, first compound 9.49 µM): 96.5%
- viability, T/C (second compound 0.03 µM, first compound 30 µM): 89.9%
- viability, T/C (second compound 0.0949 µM, first compound 0.0949 µM): 78.4%
- viability, T/C (second compound 0.0949 µM, first compound 0.3 µM): 74.4%
- viability, T/C (second compound 0.0949 µM, first compound 0.949 µM): 80.2%
- viability, T/C (second compound 0.0949 µM, first compound 3 µM): 79.8%
- viability, T/C (second compound 0.0949 µM, first compound 9.49 µM): 74.9%
- viability, T/C (second compound 0.0949 µM, first compound 30 µM): 78.8%
- viability, T/C (second compound 0.3 µM, first compound 0.0949 µM): 68.9%
- viability, T/C (second compound 0.3 µM, first compound 0.3 µM): 68.7%
- viability, T/C (second compound 0.3 µM, first compound 0.949 µM): 72.7%
- viability, T/C (second compound 0.3 µM, first compound 3 µM): 66.8%
- viability, T/C (second compound 0.3 µM, first compound 9.49 µM): 70.6%
- viability, T/C (second compound 0.3 µM, first compound 30 µM): 60.7%

SMILES: CC(C)n1c(=O)n(C)c2cnc3cc(F)c(-c4ccc(OCCCN5CCCCC5)nc4)cc3c21 + CC[C@@]1(O)C(=O)OCc2c1cc1n(c2=O)Cc2cc3c(CN(C)C)c(O)ccc3nc2-1
- IC50 [1]: 6.02 µM
- IC50 [2]: 5.72 µM
- IC50 [3]: 5.24 µM
- IC50 [4]: 4.41 µM
- IC50 [5]: 5.01 µM
- viability, T/C [6]: 99.8%
- viability, T/C [7]: 92.3%
- viability, T/C [8]: 94.5%
- viability, T/C [9]: 93.9%
- viability, T/C [10]: 82.3%
- viability, T/C [11]: 24.5%
- viability, T/C [12]: 86.4%
- viability, T/C [13]: 86.5%
- viability, T/C [14]: 86.5%
- viability, T/C [15]: 86.3%
- viability, T/C [16]: 84%
- viability, T/C [17]: 17.9%
- viability, T/C [18]: 81.4%
- viability, T/C [19]: 78.3%
- viability, T/C [20]: 83.2%
- viability, T/C [21]: 75.4%
- viability, T/C [22]: 73.2%
- viability, T/C [23]: 21%
- viability, T/C [24]: 87.4%
- viability, T/C [25]: 85.3%
- viability, T/C [26]: 75.7%
- viability, T/C [27]: 77.9%
- viability, T/C [28]: 61.5%
- viability, T/C [29]: 22.8%
- viability, T/C [30]: 92.2%
- viability, T/C [31]: 84.3%
- viability, T/C [32]: 73.4%
- viability, T/C [33]: 84.1%
- viability, T/C [34]: 71.8%
- viability, T/C [35]: 17%

- IC50 (compound alone, run of 12/02/2019): > 0.3 µM
- IC50 (compound alone, run of 12/12/2019): > 0.3 µM
SMILES: CC[C@@]1(O)C(=O)OCc2c1cc1n(c2=O)Cc2cc3c(CN(C)C)c(O)ccc3nc2-1
- viability, T/C (compound 0.003 µM): 94.5% [middle of 10 runs]
- viability, T/C (compound 0.03 µM): 86% [middle of 10 runs]
- viability, T/C (compound 0.0949 µM): 86.1% [middle of 10 runs]
- viability, T/C (compound 0.3 µM): 66.8% [middle of 10 runs]
